# ChEMBL document CHEMBL1201862, “PubChem BioAssay data set” (2004)
# The source made the active and inactive calls.
# Key:
# Melanocortin receptor 4 = Melanocortin receptor 4 (Homo sapiens, UniProt P32245); type: functional, cell-based;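 further: Cell-based assay with luminescence read-out, confirmatory dose-response testing for agonist activity of biased ligands at MC4R; human U2OS cells with tagged receptor and beta-arrestin; potency of agonists that increase receptor coupling to beta-arrestin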
# INS1 = assay: INS-1E survival protection against cytokine death – cell-based, luminescence, retest, dose response (AID 449756); type: functional; details: Rattus norvegicus;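 further: cell death triggered by IL-1 beta plus TNF-alpha plus IFN-gamma mixture; protective hits raise ATP signal compared with cytokine alone wells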
# [1] = fluconazole-exposed Candida albicans growth modulators – fluorescence, retest, confirmation (AID 2467); type: functional, cell-based
# [2] = NIH-3T3 fibroblast cytotoxicity, dose response, cytotoxicity control, cell-based, fluorescence, Alamar Blue, secondary assay (AID 2327); type: functional;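 further: NIH-3T3 mouse fibroblasts cultured with fluconazole at 8 µg/mL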
# [3] = target: T1, Microphthalmia-associated transcription factor (Homo sapiens, UniProt O75030); assay: reducers of TRPM1 reporter luminescence, concentration series – cell-based, SK-MEL-5, cherry-picked, set 3, MITF inhibitor project, dose response (AID 493073); type: functional;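 further: SK-MEL-5 melanoma cells with luciferase driven by the MITF target TRPM1 promoter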
# T1 sequence (O75030 whole entry): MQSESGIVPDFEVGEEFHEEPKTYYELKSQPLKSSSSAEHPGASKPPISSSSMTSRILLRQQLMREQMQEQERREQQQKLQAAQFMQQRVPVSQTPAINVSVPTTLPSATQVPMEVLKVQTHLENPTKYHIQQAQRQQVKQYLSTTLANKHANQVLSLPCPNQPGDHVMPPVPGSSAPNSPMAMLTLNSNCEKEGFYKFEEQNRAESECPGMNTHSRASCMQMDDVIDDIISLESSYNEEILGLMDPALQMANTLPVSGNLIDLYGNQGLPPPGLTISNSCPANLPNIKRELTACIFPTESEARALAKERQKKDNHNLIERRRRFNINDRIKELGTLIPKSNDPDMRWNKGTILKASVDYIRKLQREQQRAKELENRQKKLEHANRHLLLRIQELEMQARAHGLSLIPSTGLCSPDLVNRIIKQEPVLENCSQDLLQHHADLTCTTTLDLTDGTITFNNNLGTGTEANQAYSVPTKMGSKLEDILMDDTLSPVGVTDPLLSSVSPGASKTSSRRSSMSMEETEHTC
# [4] = target: DNA dC->dU-editing enzyme APOBEC-3G (Homo sapiens, UniProt Q9HC16); assay: Dose Response confirmation of small molecule APOBEC3G DNA Deaminase Inhibitors via a fluorescence-based single-stranded DNA deaminase assay. [Related pubchem assays (depositor defined):AID493012, AID493028]; type: functional
# CAAX prenyl protease 2 = target: T2, CAAX prenyl protease 2 (Saccharomyces cerevisiae S288c, UniProt Q03530); type: biochemical
# T2 sequence (Q03530 whole entry): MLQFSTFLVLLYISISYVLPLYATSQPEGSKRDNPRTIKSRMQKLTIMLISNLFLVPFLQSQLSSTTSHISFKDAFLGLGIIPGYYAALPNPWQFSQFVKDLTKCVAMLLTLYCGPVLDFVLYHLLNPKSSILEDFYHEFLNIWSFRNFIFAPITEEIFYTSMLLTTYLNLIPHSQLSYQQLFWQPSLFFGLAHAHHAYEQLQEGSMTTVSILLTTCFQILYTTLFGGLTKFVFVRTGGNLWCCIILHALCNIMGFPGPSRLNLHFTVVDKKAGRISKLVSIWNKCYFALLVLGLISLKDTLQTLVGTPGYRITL
# cells [5] = type: functional, cell-based
# cells [6] = type: functional, cell-based; remark: listed apart in the source
# [7] = target: 72 kDa type IV collagenase (Homo sapiens, UniProt P08253); assay: Dose Response validation of uHTS RPN11 inhibitor hits using a MMP-2 Fluorescence assay.; type: functional
# Prothrombin = Prothrombin (Bos taurus, UniProt P00735); assay: thrombin protease inhibitors – biochemical, fluorescence polarization, uHTS hits, dose response (AID 602369); type: functional
# [8] = target: 26S proteasome non-ATPase regulatory subunit 14 (Homo sapiens, UniProt O00487); assay: inhibition of proteasome subunit RPN11 – biochemical, fluorescence polarization, uHTS hits, confirmation (AID 602368); type: functional
# [9] = viability of uninfected HEp-2 cells – cell-based, HTS, cytotoxicity control for RSV inhibitor project, dose response (AID 2410); type: functional; details: human respiratory syncytial virus
# [10] = target: T3, Zinc finger protein mex-5 (Caenorhabditis elegans, UniProt Q9XUB2); assay: potency of MEX-5 RNA-binding blockers – biochemical, C. elegans, fluorescence polarization, dose response (AID 1960)
# T3 sequence (Q9XUB2 whole entry): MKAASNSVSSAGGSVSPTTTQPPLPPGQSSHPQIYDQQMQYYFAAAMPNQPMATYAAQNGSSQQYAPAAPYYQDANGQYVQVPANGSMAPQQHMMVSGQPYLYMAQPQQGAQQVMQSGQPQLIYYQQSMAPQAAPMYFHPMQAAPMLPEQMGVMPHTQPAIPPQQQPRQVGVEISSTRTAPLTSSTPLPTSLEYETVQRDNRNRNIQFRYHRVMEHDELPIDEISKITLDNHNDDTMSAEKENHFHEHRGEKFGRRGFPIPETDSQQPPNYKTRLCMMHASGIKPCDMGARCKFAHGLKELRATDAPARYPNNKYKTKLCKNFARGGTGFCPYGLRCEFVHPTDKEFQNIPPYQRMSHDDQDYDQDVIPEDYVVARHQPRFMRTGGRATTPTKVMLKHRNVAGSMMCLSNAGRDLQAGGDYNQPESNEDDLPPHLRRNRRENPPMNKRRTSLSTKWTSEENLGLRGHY
# [11] = target: T4, RNA-binding protein pos-1 (Caenorhabditis elegans, UniProt G5EF15); assay: disruptors of C. elegans POS-1 RNA interaction – biochemical, fluorescence polarization, dose response (AID 1964);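 further: purified POS-1 fused to maltose binding protein made in E. coli; potency of compounds blocking POS-1 binding to fluorescent RNA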
# T4 sequence (G5EF15 whole entry): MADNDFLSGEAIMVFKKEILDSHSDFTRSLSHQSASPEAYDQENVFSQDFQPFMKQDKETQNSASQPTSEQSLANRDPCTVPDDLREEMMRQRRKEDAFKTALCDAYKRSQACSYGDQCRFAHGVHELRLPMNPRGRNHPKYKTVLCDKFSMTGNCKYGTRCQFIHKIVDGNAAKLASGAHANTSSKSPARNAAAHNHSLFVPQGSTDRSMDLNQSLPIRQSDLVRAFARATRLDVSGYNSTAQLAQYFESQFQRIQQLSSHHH
# [12] = target: T5, Endoribonuclease toxin MazF (Escherichia coli K-12, UniProt P0AE70); assay: substrate-only fluorescence increase artefacts – biochemical, single-stranded RNase substrate, counter-screen for MazEF activator project, dose response (AID 588502); type: functional
# T5 sequence (P0AE70 whole entry): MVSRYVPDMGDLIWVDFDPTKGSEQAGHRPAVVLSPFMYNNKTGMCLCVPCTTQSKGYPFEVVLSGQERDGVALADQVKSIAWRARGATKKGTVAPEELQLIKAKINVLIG
# [13] = target: T5, Endoribonuclease toxin MazF; assay: activation of MazEF endoribonuclease cleavage – biochemical, fluorescence, single-stranded RNA substrate, uHTS hits, dose response (AID 588481); type: functional
# [14] = target: T6, Mannose-6-phosphate isomerase (Homo sapiens, UniProt P34949); assay: MPI inhibition at elevated mannose 6-phosphate – biochemical, fluorescence intensity, high mannose 6-phosphate, primary screen (AID 1220)
# T6 sequence (P34949 whole entry): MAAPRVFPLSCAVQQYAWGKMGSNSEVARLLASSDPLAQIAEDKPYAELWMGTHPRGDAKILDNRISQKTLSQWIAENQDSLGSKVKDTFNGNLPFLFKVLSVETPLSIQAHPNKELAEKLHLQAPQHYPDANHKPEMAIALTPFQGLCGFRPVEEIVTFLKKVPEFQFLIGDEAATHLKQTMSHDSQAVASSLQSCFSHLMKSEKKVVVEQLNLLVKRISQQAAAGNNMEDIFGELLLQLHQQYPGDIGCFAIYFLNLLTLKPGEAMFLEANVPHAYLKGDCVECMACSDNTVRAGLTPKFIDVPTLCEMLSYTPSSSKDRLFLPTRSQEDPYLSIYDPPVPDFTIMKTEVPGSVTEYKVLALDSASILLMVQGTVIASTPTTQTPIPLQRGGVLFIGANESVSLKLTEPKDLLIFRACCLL
# Protein skinhead-1 = target: T7, Protein skinhead-1 (Caenorhabditis elegans, UniProt P34707); type: functional
# T7 sequence (P34707 whole entry): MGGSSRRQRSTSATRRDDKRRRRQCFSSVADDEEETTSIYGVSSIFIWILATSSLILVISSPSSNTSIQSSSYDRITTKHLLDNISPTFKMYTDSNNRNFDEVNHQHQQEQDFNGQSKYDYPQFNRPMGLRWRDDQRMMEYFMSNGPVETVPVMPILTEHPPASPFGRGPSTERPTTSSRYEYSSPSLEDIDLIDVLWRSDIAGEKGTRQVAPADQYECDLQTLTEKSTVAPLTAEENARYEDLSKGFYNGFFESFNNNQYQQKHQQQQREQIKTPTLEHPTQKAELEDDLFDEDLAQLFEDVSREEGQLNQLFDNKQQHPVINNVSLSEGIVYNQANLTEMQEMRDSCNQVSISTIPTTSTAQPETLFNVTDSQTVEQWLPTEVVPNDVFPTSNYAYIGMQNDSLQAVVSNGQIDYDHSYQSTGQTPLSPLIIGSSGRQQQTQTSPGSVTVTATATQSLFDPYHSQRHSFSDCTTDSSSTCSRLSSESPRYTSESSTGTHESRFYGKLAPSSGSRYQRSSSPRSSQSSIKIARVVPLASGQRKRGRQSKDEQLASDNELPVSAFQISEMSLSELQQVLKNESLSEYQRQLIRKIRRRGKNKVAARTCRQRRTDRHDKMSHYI
# H9c2 = assay: cells; type: functional, cell-based; details: Rattus norvegicus, H9c2, Myocardium;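 further: confirmatory concentration-response retest of ultra-high-throughput screening hits for modulation of myocardial damage; cell death induced by hydrogen peroxide oxidative stress; compound pretreatment for 60 min then peroxide exposure for 2 h; potency is for protecting the cells against peroxide damage rather than for killing them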
# 72 kDa type IV collagenase, sequence (P08253 whole entry): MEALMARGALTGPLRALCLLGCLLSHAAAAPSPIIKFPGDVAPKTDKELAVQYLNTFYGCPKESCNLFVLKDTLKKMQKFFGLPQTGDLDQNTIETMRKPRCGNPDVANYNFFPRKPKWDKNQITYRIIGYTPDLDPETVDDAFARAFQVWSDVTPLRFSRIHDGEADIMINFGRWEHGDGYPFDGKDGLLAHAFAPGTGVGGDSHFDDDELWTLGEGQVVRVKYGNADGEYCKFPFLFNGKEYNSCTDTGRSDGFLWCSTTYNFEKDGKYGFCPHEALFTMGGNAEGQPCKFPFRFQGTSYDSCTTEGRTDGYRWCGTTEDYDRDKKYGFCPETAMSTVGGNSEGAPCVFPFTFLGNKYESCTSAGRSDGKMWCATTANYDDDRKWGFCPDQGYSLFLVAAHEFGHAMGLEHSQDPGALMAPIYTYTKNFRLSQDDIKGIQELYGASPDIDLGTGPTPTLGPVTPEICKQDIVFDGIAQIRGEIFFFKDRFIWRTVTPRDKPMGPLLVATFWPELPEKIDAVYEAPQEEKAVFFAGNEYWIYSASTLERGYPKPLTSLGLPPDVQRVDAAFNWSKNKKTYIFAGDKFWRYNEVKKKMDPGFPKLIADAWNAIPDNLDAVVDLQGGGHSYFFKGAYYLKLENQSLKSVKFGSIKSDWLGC
# Melanocortin receptor 4, sequence (P32245 whole entry): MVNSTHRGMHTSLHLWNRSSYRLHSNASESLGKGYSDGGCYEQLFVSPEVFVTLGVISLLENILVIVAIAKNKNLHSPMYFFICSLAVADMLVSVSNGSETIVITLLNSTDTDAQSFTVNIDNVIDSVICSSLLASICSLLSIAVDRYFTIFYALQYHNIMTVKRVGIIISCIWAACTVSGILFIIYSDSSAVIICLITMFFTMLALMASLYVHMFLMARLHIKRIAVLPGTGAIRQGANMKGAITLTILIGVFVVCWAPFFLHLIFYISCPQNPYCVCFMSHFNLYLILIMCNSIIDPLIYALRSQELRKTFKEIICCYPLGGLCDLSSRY
# 26S proteasome non-ATPase regulatory subunit 14, sequence (O00487 whole entry): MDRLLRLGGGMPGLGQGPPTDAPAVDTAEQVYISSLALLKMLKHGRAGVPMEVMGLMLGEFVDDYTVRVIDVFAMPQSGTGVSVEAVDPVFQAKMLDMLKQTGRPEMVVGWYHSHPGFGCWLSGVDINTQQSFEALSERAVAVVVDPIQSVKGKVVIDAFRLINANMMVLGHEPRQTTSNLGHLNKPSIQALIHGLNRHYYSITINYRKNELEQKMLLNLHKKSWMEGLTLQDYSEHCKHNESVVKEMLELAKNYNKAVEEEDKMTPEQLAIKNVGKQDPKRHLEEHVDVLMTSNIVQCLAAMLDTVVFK
# DNA dC->dU-editing enzyme APOBEC-3G, sequence (Q9HC16 whole entry): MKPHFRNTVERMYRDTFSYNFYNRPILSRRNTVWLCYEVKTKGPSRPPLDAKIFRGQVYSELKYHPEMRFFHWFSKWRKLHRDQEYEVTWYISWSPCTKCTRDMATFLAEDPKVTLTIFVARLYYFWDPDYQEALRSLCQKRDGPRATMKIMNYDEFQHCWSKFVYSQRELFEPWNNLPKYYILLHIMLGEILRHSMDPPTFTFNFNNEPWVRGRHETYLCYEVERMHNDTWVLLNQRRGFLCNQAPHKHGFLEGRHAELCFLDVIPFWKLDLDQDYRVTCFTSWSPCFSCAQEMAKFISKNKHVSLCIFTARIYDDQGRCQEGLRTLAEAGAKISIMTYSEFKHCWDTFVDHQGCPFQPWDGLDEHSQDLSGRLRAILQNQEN
smiles,measurement,setting,value
CC1CCC(C(C)C)C(OC(=O)C[n+]2cc(-c3ccc(Cl)cc3)n3c2CCCCC3)C1 (configuration not stated),EC50,Melanocortin receptor 4,> 9.91 µM (active)
same,AC50,INS1,4.91 µM (active)
same,EC50,[1],0.459 µM (active)
same,EC50,[2],> 160 µM (inactive)
same,AC50,[3],6.97 µM (active)
Cc1cc(C)c(C#N)c(=N)o1,IC50,[4],37.4 µM (active)
O=C(Nc1cccc(-c2cn3ccccc3n2)c1)C1CC1,AC50,CAAX prenyl protease 2,31.9 µM (active)
same,EC50,cells [5],> 350 µM (not active)
same,EC50,cells [6],> 350 µM (not active)
C1COCCO1.Cc1cc(C)c2nc(Nc3nc(O)cc(-c4ccccc4)n3)nc(C)c2c1,EC50,Melanocortin receptor 4,> 89.2 µM (inactive)
CCOc1ccc(C(=O)CCC(=O)N2CCN(c3ncccn3)CC2)cc1,IC50,[7],83.5 µM (active)
same,IC50,Prothrombin,34.3 µM (active)
same,IC50,[8],38.6 µM (active)
COc1cccc(C(=O)Nc2nnc(SCC(=O)NC3CCCC3)s2)c1,AC50,CAAX prenyl protease 2,52.3 µM (active)
CCOC(=O)c1cc(-c2ccccc2)sc1NC(=O)C(C)Sc1nnnn1C (configuration not stated),CC50,[9],> 50 µM (active)
same,AC50,CAAX prenyl protease 2,7.54 µM (active)
Oc1nc2ccccc2nc1/C=C/c1ccc(F)cc1,EC50,[10],> 300 µM (not active)
same,EC50,[11],41.9 µM (inconclusive)
same,EC50,[12],> 99 µM (inactive)
same,EC50,[13],15.6 µM (active)
O=C(c1ccc(COc2ccc(Br)cc2)o1)N1N=C(C(F)F)CC1(O)C(F)F (configuration not stated),EC50,Melanocortin receptor 4,> 89.2 µM (inactive)
COCc1n[nH]c2c1C(c1cc(OC)c(O)c(OC)c1)C(C#N)=C(N)O2 (configuration not stated),EC50,[12],> 99 µM (inactive)
same,EC50,[13],> 99 µM (inactive)
same,IC50,[14],> 50 µM (not active)
CC(C)Oc1ccc(/C=C(\NC(=O)/C=C/c2ccco2)C(=O)NCCc2nc3ccccc3[nH]2)cc1,IC50,[7],> 100 µM (inactive)
same,IC50,Prothrombin,55.6 µM (active)
same,IC50,[8],57.5 µM (active)
COc1ccc(-c2ccc(/C=C3/C(=N)N4C(C)=CSC4=NC3=O)o2)c([N+](=O)[O-])c1,IC50,Protein skinhead-1,> 100 µM (inactive)
same,EC50,[12],29 µM (inactive)
same,EC50,[13],> 99 µM (inactive)
COc1ccc(-c2nc3ccccc3c(=O)n2NC(=S)N(C)C)cc1,IC50,[4],35.1 µM (active)
CC(=O)c1ccc(N2CCN(C(=O)c3cc4c(C)nc5ccccc5c4o3)CC2)cc1,EC50,[12],30.7 µM (inactive)
same,EC50,[13],> 99 µM (inactive)
Cc1ccccc1C(=O)/C=C1/SCC(=O)N1C,IC50,[7],> 100 µM (inactive)
same,IC50,Prothrombin,37.3 µM (active)
same,IC50,[8],18.9 µM (active)
CC1(C)CC(=O)C(=NNc2cc3c(cc2[N+](=O)[O-])OCCO3)C(=O)C1,EC50,[12],29.6 µM (inactive)
same,EC50,[13],> 99 µM (inactive)
Cc1cccc(NC(=S)NC(=O)C(c2ccccc2)c2ccccc2)n1,EC50,Melanocortin receptor 4,> 89.2 µM (inactive)
COc1ccc(-c2cc(NC(C)=O)c3ncc(-c4ccc(OC)c(OC)c4)n3c2)cc1OC,EC50,Melanocortin receptor 4,> 89.2 µM (inactive)
same,IC50,H9c2,> 79 µM (inactive)
Cc1cccnc1C(c1ccc(F)cc1)N(C)C(=O)C1CCN(CCOc2ccc(Cl)cc2Cl)CC1 (configuration not stated),EC50,Melanocortin receptor 4,> 89.2 µM (inactive)
